Laboratory results as given in patent publication US20250136652A1, “FUSION PROTEIN FOR TARGETING RECOMBINANT PROTEINS FOR DEGRADATION” (The Regents of the University of California, priority 2022, published 2025).

Tested on: green fluorescent protein (GFP) target
Assay: STUD-induced degradation of GFP target in Jurkat T cells, flow cytometry
Assay type: cell-based
Conditions: GFP normalized by tagBFP, 72 hours following removal of lentivirus
Experimental: Jurkat cells were lentivirally transduced with two plasmids. The first encodes a STUD, or control with a mutated degron, and a mCherry transduction marker separated by a 2A element and the second encodes GFP target protein and a BFP transduction marker separated by a 2A element. In the case of the SynZip STUD, the GFP target is fused to a heterodimeric SynZip protein complementary to the binding domain on the STUD. These transduced cells are analyzed for fluorescence by flow cytometry […] after removal of virus. Cells are first gated on these transduction markers to isolate relevant populations. Then, normalized GFP fluorescence is calculated by normalizing each cell's GFP fluorescence, as obtained by flow cytometry, by its BFP fluorescence. Then, the median normalized GFP fluorescence of each flow cytometry distribution is calculated and shown in the bar plot. Each dot represents the mean of the median normalized GFP fluorescence of three technical replicates in three independent experiments. […]
Either the SynZip STUD and the antiGFP nanobody STUD in Jurkat T cells alongside a plasmid encoding either GFP fused to a complementary SynZip or GFP alone, respectively (FIG. 2B) were lentivirally transduced. 72 hours following removal of lentivirus, we assay for GFP fluorescence by flow cytometry. […] Representative histograms of unnormalized GFP fluorescence are also shown for reference. […]

Substance: SynZip STUD: Fusion protein SEQ ID NO: 413: lysine-free modified synZIP18 heterodimerization domain, flexible linker, C-terminal RRRG degron; 55 amino acids (SIAATLENDLARLENENARLERDIANLERDLARLEREEAYFGSGSGSGSGSRRRG)
- fold change of median normalized GFP fluorescence: approximately 42 fold
